What follows are molecules tested on KB (assay: Cytotoxicity against human KB cells). Details: read-out: ED50 (the source's name).
Type: functional

Question: How did the EC50 turn out when `C=C1C(=O)O[C@H]2[C@H]1[C@H](OC(=O)/C(C)=C\C)CC(=C)[C@@H]1[C@H](O)[C@H]3O[C@@]3(C)[C@@]12O` [EUPATUNDIN] was run?
Answer: 1.04 µM

Question: How did the EC50 turn out when `C=C1C(=O)O[C@@H]2/C=C(\CO)CC/C=C(\CO)C[C@H](OC(=O)C(C)C)[C@@H]12` [ALATOLIDE] was run?
Answer: 4 µM

Question: How did the EC50 turn out when `C=C1CC(OC(=O)/C(C)=C/C)C2C(=C)C(=O)OC2/C=C(\C)C(O)CC1O` (centres undefined) [HYDROXYISONOBILIN] was run?
Answer: 3.7 µM

Question: For `C=C1C(=O)O[C@@H]2C[C@@H](C)[C@@H]3C=CC(=O)[C@@]3(C)[C@@H](O)[C@H]12` [HELENALIN], which EC50 is on record?
Answer: 0.76 µM

Question: Which EC50 does the source give for `C=C1[C@@H]2[C@H]3OC(=O)C(=C)[C@@H]3CCC(=C)[C@@H]2C[C@@H]1O[C@@H]1O[C@H](COC(C)=O)[C@@H](OC(C)=O)[C@H](OC(C)=O)[C@H]1OC(C)=O` [VERNOFLEXUOSIDE TETRA ACETYL] here?
Answer: 8.75 µM

Question: How did the EC50 turn out when `C=C1C(=O)O[C@H]2[C@H]1[C@H](OC(=O)/C(C)=C\C)C[C@]1(CO1)[C@@H]1[C@H](O)[C@H]3O[C@@]3(C)[C@]21O` [EUPATOROXIN] was run?
Answer: 7.14 µM

Question: Which EC50 does the source give for `C=C1C(=O)O[C@@H]2[C@H]3C(CO)=CC(=O)C3=C(C)C[C@@H](O)[C@@H]12` [LACTUCIN] here?
Answer: 260 µM

Question: `C=C1C(=O)O[C@H]2CC3=C[C@@H](C[C@]4(C)O[C@@H]4[C@@H](O)[C@H]12)OC3=O` [ELEPHANTOL] was tested. Which EC50 did it give?
Answer: 123 µM

Question: How did the EC50 turn out when `C=C[C@@]12COC(=O)C(=C)[C@@H]1[C@H]1OC(=O)C(=C)[C@@H]1[C@@H](OC(=O)C(=C)CO)C2` [VERNODALIN] was run?
Answer: 5 µM

Question: Which EC50 does the source give for `C=C1C(=O)O[C@H]2[C@H]1[C@H](OC(=O)/C(C)=C\C)C[C@@]1(CO1)[C@@H]1[C@H](O)[C@H]3O[C@@]3(C)[C@]21O` here?
Answer: 0.63 µM

Question: How did the EC50 turn out when `C=C1[C@@H]2[C@H]3OC(=O)C(=C)[C@@H]3CCC(=C)[C@H]2C[C@@H]1OC(=O)C=C(C)C` [VERNOFLEXIN] was run?
Answer: 4.3 µM

Question: For `C=C1C(=O)O[C@@H]2/C=C(\C)C[C@H](O)/C=C(\C)CC[C@@H]12` [TAMAULIPIN A], which EC50 is on record?
Answer: 5.08 µM

Question: Which EC50 does the source give for `C=C1C(=O)O[C@@H]2/C=C(/C)[C@@]3(O)C=C[C@@](C)(C[C@@H](OC(=O)/C(=C\C)COC(C)=O)[C@@H]12)O3` [LIATRIN] here?
Answer: 3.93 µM

Question: Which EC50 does the source give for `C=C1C(=O)O[C@H]2C[C@@]3(CO3)[C@@H]3C[C@H](OC(C)=O)C(=C)[C@]3(O)C[C@H]12` [ARCTOLIDE] here?
Answer: 29 µM

Question: How did the EC50 turn out when `C=C1C(=O)O[C@H]2C[C@@H](C)[C@@H]3C=CC(=O)[C@@]3(C)[C@H](O)[C@H]12` [MEXICANIN I] was run?
Answer: 1.26 µM

Question: Which EC50 does the source give for `C=C1C(=O)O[C@@H]2/C=C(\C)[C@@H](OC(C)=O)C/C=C(\C)C(OC(=O)[C@]3(C)O[C@@H]3C)C(O)[C@@H]12` (some centres undefined) [EUPATOCUNOXIN] here?
Answer: 4.04 µM

Question: For `C=C1C(=O)O[C@@H]2/C=C(\C)CC/C=C(\C)C[C@@H](O)[C@@H]12` [EUPATOLIDE], which EC50 is on record?
Answer: 5 µM

Question: With `C=C1C(=O)O[C@H]2[C@H]1[C@@H](OC(=O)C=C(C)C)CC1=C[C@@H](C[C@@]3(C)O[C@H]23)OC1=O` [ELEPHANTIN] as the molecule, how does the EC50 read?
Answer: 3.22 µM

Question: How did the EC50 turn out when `C=C1C(=O)O[C@H]2C[C@@H](C)[C@@H]3C=CC(=O)[C@@]3(C)[C@H](OC(C)=O)[C@H]12` [LINIFOLIN A] was run?
Answer: 2 µM

Question: With `C=C1C(=O)O[C@@H]2[C@H]1CC[C@H](C)[C@@H]1C=CC(=O)[C@@]21C` [AMBROSIN] as the molecule, how does the EC50 read?
Answer: 1.83 µM

Question: `C=C1C(=O)O[C@@H]2[C@H]1CC[C@H](C)[C@]1(O)C=CC(=O)[C@@]21C` [PARTHENIN] was tested. Which EC50 did it give?
Answer: 1.3 µM

Question: With `C=C[C@@]12COC(=O)C(=C)[C@@H]1[C@H]1OC(=O)C(=C)[C@@H]1[C@@H](O)C2` [VERNOLEPIN] as the molecule, how does the EC50 read?
Answer: 6.52 µM

Question: For `C=C1C(=O)O[C@H]2C[C@H](C)[C@@H]3CC(=O)C(C)=C3C[C@H]12` [XERANTOLIDE], which EC50 is on record?
Answer: 6.1 µM

Question: For `C=C1C(=O)O[C@@H]2/C=C(\C)CC/C=C(\C)CC[C@@H]12` [COSTUNOLIDE], which EC50 is on record?
Answer: 2.46 µM

Question: With `C=C(C)C(=O)O[C@H]1CC2=C[C@@H](C[C@@]3(C)O[C@@H]3[C@H]3OC(=O)C(=C)[C@@H]31)OC2=O` [ELEPHANTOPIN] as the molecule, how does the EC50 read?
Answer: 2.51 µM

Question: How did the EC50 turn out when `C=C1C(=O)O[C@@H]2/C=C(\C)[C@H](O)C/C=C(\C)CC[C@@H]12` [TAMAULIPIN B] was run?
Answer: 10.5 µM

Question: For `C=C1C(=O)O[C@H]2C[C@@H](C)[C@@H]3C=CC(=O)[C@@]3(C)C[C@H]12` [AROMATICIN], which EC50 is on record?
Answer: 1.38 µM

Question: Which EC50 does the source give for `C=C1C(=O)O[C@H]2/C=C(\C)C(=O)C/C=C(/C)C[C@H](OC(=O)/C(C)=C\C)[C@@H]12` [DEHYDRONOBILIN] here?
Answer: 2.7 µM

Question: How did the EC50 turn out when `C=C1C(=O)O[C@@H]2C3O[C@]3(C)CC/C=C(\C)CC[C@@H]12` (some centres undefined) was run?
Answer: 5.3 µM

Question: How did the EC50 turn out when `C=C1C(=O)O[C@H]2[C@H]1[C@H](OC(=O)/C(C)=C\C)C[C@](O)(CCl)[C@@H]1[C@H](OC(C)=O)C=C(C)[C@]21O` [EUPACHLORIN ACETATE] was run?
Answer: 0.35 µM

Question: `C=C1C(=O)O[C@@H]2/C=C(/CO)[C@@H](OC(C)=O)C[C@H](O)/C(C)=C\[C@@H](OC(=O)/C(C)=C/C)[C@@H]12` [EUPACUNOLIN] was tested. Which EC50 did it give?
Answer: 8.8 µM

Question: `C=C1C(=O)O[C@@H]2/C=C3\CCC4OC4(C[C@H](OC(=O)C(C)C)[C@@H]12)C(O)OC3` (some centres undefined) [VERNOMYGDIN] was tested. Which EC50 did it give?
Answer: 4.12 µM

Question: For `C=C1C(=O)O[C@H]2C/C(C)=C/C[C@@H](OC(C)=O)/C(C)=C/[C@@H](OC(C)=O)[C@@H]12` [CHAMMISSONIN DIACETATE], which EC50 is on record?
Answer: 6.12 µM

Question: `C=C1C(=O)O[C@@H]2[C@H]1CC[C@H](C)[C@]1(O)CCC(=O)[C@@]21C` [CORONOPILIN] was tested. Which EC50 did it give?
Answer: 5.49 µM

Question: Which EC50 does the source give for `C=C1C(=O)O[C@@H]2/C=C(\CO)CC/C=C(\C)C[C@H](O)[C@@H]12` [SALONITENOLIDE] here?
Answer: 9.1 µM

Question: For `C=C1C(=O)O[C@H]2C[C@@]3(C)O[C@@H]3CC/C(C(=O)OC)=C\C[C@H]12` [HIRUSUTOLIDE], which EC50 is on record?
Answer: 7 µM

Question: How did the EC50 turn out when `C=C1C(=O)O[C@@H]2[C@H]1[C@@H](O)C[C@H](C)[C@@H]1CCC(=O)[C@@]21C` [DESACETYLCONFERTIFLORIN] was run?
Answer: 8.71 µM

Question: For `C=C1C(=O)O[C@@H]2/C=C(/C)[C@@H](OC(C)=O)C[C@H](O)/C(C)=C\[C@@H](OC(=O)[C@]3(C)O[C@@H]3C)[C@@H]12` [EUPACUNOXIN], which EC50 is on record?
Answer: 5 µM

Question: With `C=C1C(=O)O[C@H]2C=C(C)[C@H]3[C@@H](OC(C)=O)C[C@@](C)(O)[C@@H]3C[C@H]12` [GAILLARDIN] as the molecule, how does the EC50 read?
Answer: 7.52 µM

Question: How did the EC50 turn out when `C=C[C@@]12COC(=O)C(=C)[C@@H]1[C@H]1OC(=O)C(=C)[C@@H]1[C@@H](OC(C)=O)C2` [VERNOLEPIN ACETATE] was run?
Answer: 8.49 µM

Question: For `C=C1C(=O)O[C@H]2[C@H]1[C@H](OC(=O)/C(C)=C\C)C[C@](O)(CCl)[C@@H]1[C@H](O)C=C(C)[C@]21O` [EUPACHLORIN], which EC50 is on record?
Answer: 0.51 µM

Question: How did the EC50 turn out when `C=C[C@@]12COC(=O)C(=C)[C@@H]1[C@@H](O)[C@@H]1C(=C)C(=O)O[C@H]1C2` [VERNOMENIN] was run?
Answer: 127 µM

Question: For `C=C1C(=O)O[C@@H]2/C=C(\C)CC/C=C(/C)C[C@@H](OC(=O)/C(=C/CO)CO)[C@@H]12` [EUPATORIOPICRIN], which EC50 is on record?
Answer: 3.3 µM

Question: With `C=C[C@]12COC(=O)C(=C)[C@H]1[C@H](OC(C)=O)[C@H]1C(=C)C(=O)O[C@@H]1C2` [VERNOMENIN ACETATE] as the molecule, how does the EC50 read?
Answer: 26.2 µM

Question: With `C=C1C(=O)O[C@@H]2/C=C(\C)[C@@H](OC(C)=O)C/C=C(/C)C(O)[C@@H](OC(=O)/C(C)=C\C)[C@@H]12` (some centres undefined) [EUPATOCUNIN] as the molecule, how does the EC50 read?
Answer: 0.27 µM

Question: How did the EC50 turn out when `C=C1C(=O)O[C@H]2[C@H]1[C@H](OC(=O)/C(C)=C/C)C[C@]1(CO1)[C@@H]1[C@H](O)C=C(C)[C@]21O` [EUPAROTIN] was run?
Answer: 0.56 µM

Question: `C=C1C(=O)O[C@@H]2/C=C(/C)[C@@H](O)C[C@H]3O[C@]3(C)C[C@@H](OC(=O)/C(C)=C\C)[C@@H]12` [EPOXYNOBILIN] was tested. Which EC50 did it give?
Answer: 0.99 µM

Question: How did the EC50 turn out when `C=C1C(=O)O[C@@H]2[C@H]1CC[C@H](C)[C@@H]1C[C@@H](O)C(=O)[C@@]21C` was run?
Answer: 10 µM

Question: For `C=C[C@@]12COC(=O)C(=C)[C@@H]1[C@H]1OC(=O)C(=C)[C@@H]1[C@@H](OC(=O)C(=C)C)C2` [VERNOLEPIN METHACRYLATE], which EC50 is on record?
Answer: 1.22 µM

Question: `C=C1C(=O)O[C@H]2[C@H]1[C@H](OC(=O)/C(C)=C\C)C[C@]1(CO1)[C@@H]1[C@H](OC(C)=O)C=C(C)[C@]21O` [EUPAROTIN ACETATE] was tested. Which EC50 did it give?
Answer: 0.53 µM

Question: `C=C1C(=O)O[C@H]2[C@H]1[C@H](OC(=O)/C(C)=C\C)C[C@](O)(CCl)[C@@H]1[C@H](O)[C@H]3O[C@@]3(C)[C@]21O` [EUPACHLOROXIN] was tested. Which EC50 did it give?
Answer: 8.39 µM

Question: Which EC50 does the source give for `C=C1[C@@H]2[C@H]3OC(=O)C(=C)[C@@H]3CCC(=C)[C@@H]2C[C@@H]1O[C@@H]1O[C@H](CO)[C@@H](O)[C@H](O)[C@H]1O` [VERNOFLEXUOSIDE] here?
Answer: 19 µM

Question: Which EC50 does the source give for `C=C1[C@H](O)C[C@H](O)[C@]2(C)CC[C@@H]3[C@H](OC(=O)[C@H]3C)[C@@H]12` [ERIVANIN] here?
Answer: 1.1 µM

Question: `C=C1C(=O)O[C@@H]2[C@H]3C(CO)=CC(=O)C3=C(C)CC[C@@H]12` [DEOXYLACTUCIN] was tested. Which EC50 did it give?
Answer: 3.1 µM
